Residue numbers refer to the chain shown, from its start.
B1: Nb4: llama-derived CaSR-specific nanobody acting as PAM, SEQ ID NO:5 (protein)
VHH: QVQLVESGGGLVQAGGSLRLSCAASGRTFSTYRMGWFRQGLGKEREFVAAITANGVRTFYTDSVKGRFTISRDNAKNTLYLQMNSLQPDDTAVYLCAARRKGIFTVQQAQDITDWDYWGQGTQVTVSS
modifications: CaSR Nb4

Tests used:
[1] = biological target: T1, loss-of-function mutant CaSR Q459R (Homo sapiens, UniProt P41180, Q459R); experiment: IP1 accumulation assay, Ca2+ concentration-response curve of CaSR Q459R; type: cell-based; conditions: preliminary experiment; for Concentration at which the PAM effect is initiated: Ca2+ concentration-response curve; for Effect on potency for Ca2+ in CaSR Q459R: increasing PAM concentrations
T1 construct: expressed in transfected cells
T1 sequence (P41180 20-1078 Q459R): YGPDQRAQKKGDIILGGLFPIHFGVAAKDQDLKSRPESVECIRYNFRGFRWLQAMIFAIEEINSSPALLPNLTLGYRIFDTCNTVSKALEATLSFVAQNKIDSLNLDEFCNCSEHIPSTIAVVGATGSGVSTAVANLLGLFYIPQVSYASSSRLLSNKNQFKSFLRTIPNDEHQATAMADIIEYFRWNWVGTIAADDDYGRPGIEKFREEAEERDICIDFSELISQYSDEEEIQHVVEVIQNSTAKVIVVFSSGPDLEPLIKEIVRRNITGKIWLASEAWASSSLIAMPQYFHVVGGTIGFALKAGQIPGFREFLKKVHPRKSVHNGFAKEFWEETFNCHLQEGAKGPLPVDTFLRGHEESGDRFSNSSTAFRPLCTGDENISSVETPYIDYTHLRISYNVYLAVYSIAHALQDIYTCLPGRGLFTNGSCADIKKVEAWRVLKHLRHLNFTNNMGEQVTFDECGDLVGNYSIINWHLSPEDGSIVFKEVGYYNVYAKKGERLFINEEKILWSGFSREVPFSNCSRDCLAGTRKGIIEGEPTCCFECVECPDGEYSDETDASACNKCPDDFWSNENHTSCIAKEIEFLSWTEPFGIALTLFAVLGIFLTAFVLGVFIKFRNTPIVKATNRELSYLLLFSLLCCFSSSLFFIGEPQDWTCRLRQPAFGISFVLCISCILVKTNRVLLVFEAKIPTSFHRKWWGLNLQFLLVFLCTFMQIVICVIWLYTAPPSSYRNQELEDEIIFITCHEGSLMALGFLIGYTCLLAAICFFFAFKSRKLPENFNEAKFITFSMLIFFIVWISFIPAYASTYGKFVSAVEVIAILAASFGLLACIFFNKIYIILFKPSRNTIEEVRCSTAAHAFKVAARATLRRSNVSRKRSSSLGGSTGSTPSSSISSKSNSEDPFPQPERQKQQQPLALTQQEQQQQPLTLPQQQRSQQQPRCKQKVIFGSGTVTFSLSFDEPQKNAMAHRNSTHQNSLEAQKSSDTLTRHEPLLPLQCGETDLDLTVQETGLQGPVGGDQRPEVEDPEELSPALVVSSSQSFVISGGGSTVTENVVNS
Procedure: In comparison with loss-of-function mutant S170A, Q459R is a naturally occurring loss-of-function mutant that has previously been associated with familial hypocalciuric hypercalcemia (FHH). The effect of increasing concentrations of CaSR Nb4 or the clinically used PAM cinacalcet on the Ca^2+ concentration-response curve were measured with the IP1 accumulation assay. […] The PAM effect of CaSR Nb4 (0.04 μM) is initiated at a much lower concentration than for cinacalcet (5 μM).
Inositol monophosphate (IP1) accumulation was measured using the commercially available HTRF® IP1 accumulation kit (Cisbio Bioassays, Codolet, France) and an EnVision multimode plate reader (PerkinElmer, Waltham, Mass., USA). Unless stated otherwise, the cells were washed once with 100 μL/well assay buffer and stimulated for 30 minutes at 37° C. with 50 μL/well ligand(s) diluted in assay buffer supplemented with 20 mM LiCl. Following stimulation, the cells were washed once with 100 μL/well and lysed for 30 minutes at room temperature with 30 μL/well lysis buffer provided with the kit. The lysed cells were diluted 1:2 with assay buffer after which 10 μL/well was pipetted to a white 384-well OptiPlate (PerkinElmer, Waltham, Mass., USA). Next, 10 μL of a detection solution consisting of 2.5% IP1-d2 conjugate and 2.5% anti-IP1 antibody diluted in assay buffer was added to each well. Fluorophore emissions were measured after the plate was stored in the dark for 1 h. The 615/665 nm emission ratios measured upon excitation at 340 nm were converted to IP1 concentrations with an IP1 standard curve according to the manufacturer's instructions.

[2] = biological target: T2, CaSR 7-transmembrane domain allosteric binding site (Homo sapiens, UniProt P41180); experiment: [3H]evocalcet radioligand displacement
T2 sequence (P41180 20-1078): T1 sequence (P41180 20-1078 Q459R) with R440Q
Procedure: For the seven different nanobodies with potencies in the 10 to 600 nM range, further characterization of their recognition site on the CaSR antigen was performed, since the identification of the nanobody binding-sites at the CaSR is key to understand their interaction and mode-of-action at a molecular and structural level, and will further aid in the development of second-generation nanobodies with enhanced pharmacological parameters. Nanobodies belonging to each family of the five different nanobody families are expected to interact with distinct regions of the CaSR.

| Molecule | Concentration at which the PAM effect is initiated [1] [µM] | Effect on potency for Ca2+ in CaSR Q459R [1] | Displacement of [3H]evocalcet binding [2] |
| --- | --- | --- | --- |
| C[C@@H](NCCCc1cccc(C(F)(F)F)c1)c1cccc2ccccc12 [cinacalcet, reference compound] | 5 | able to increase the potency for Ca^2+ | did displace |
| B1 | 0.04 | able to increase the potency for Ca^2+ | do not displace |

Reference: US20220411495A1, “POSITIVE ALLOSTERIC MODULATORS OF THE CALCIUM-SENSING RECEPTOR” (VIB VZW, priority 2019, published 2022)
